Target: T1, full-length beta-Catenin (Uniprot ID P35222) (Homo sapiens, UniProt P35222)
T1 construct: 10 nM full-length beta-Catenin (Uniprot ID P35222)
T1 sequence (P35222 1-781): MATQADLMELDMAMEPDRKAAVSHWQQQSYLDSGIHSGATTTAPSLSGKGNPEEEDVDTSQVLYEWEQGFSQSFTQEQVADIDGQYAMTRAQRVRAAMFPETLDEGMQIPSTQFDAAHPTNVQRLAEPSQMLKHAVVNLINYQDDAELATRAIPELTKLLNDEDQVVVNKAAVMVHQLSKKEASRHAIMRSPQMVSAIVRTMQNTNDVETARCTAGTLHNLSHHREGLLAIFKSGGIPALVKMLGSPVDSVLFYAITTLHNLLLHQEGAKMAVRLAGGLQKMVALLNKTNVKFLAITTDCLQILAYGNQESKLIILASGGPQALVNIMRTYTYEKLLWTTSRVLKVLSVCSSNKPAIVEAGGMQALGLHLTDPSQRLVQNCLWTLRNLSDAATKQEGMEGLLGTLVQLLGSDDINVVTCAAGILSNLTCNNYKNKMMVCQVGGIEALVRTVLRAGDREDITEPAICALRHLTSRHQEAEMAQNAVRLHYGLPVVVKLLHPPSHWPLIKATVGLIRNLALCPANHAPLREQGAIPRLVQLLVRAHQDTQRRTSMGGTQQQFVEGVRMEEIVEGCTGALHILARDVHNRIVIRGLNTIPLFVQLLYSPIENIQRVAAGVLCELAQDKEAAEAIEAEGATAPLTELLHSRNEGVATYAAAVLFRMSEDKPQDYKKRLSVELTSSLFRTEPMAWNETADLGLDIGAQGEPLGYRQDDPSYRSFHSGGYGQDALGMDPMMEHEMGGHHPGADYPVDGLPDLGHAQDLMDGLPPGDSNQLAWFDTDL
Assay: Fluorescence polarization IC50 (beta-catenin / 5FAM-TCF4 10-53 competition)
Format: binding
Settings: fluorescence polarization; read-out: beta-Catenin FP IC50

Point of comparison: `CC(=O)N1CCC[C@]12CC=CCCCC1(CCCC=CCCCOC(=O)N3CC[C@@](C(=O)N[C@@H](Cc4ccsc4)C(=O)N[C@@H](Cc4csc5ccccc45)C(=O)N[C@H](C(N)=O)C(C)C)(C3)NC(=O)[C@H](CC(N)=O)NC(=O)[C@H](Cc3ccccc3)NC(=O)[C@H](C)NC(=O)[C@H](C)NC(=O)[C@H]([C@@H](C)O)NC(=O)[C@H](CC(N)=O)NC1=O)NC(=O)[C@H](CC(C)(C)C)NC(=O)[C@H](CC(=O)O)NC2=O` (stereo partly drawn) [I-1878, Ac-PL3-Asp-Npg-B5-Asn-Thr-Ala-Ala-Phe-Asn-PyrS2-3Thi-BztA-Val-NH2], IC50 458 nM. Against it:
- CC(=O)N1CCC[C@]12CC=CCCCC1(CCCC=CCCCOC(=O)N3CC[C@@](C(=O)N[C@@H](Cc4ccsc4)C(=O)N[C@@H](Cc4csc5ccccc45)C(=O)N[C@@H](CCC(N)=O)C(N)=O)(C3)NC(=O)[C@H](CC(C)C)NC(=O)[C@H](Cn3cc(CN(C)C)nn3)NC(=O)[C@H](C)NC(=O)[C@H](C)NC(=O)[C@H](CN(CC(=O)O)CC(F)(F)F)NC(=O)[C@H](CC(=O)O)NC1=O)NC(=O)[C@H](CC(C)(C)C)NC(=O)[C@H](CC(=O)O)NC2=O (stereo partly drawn) [I-1855, Ac-PL3-Asp-Npg-B5-Asp-TfeGA-Ala-Ala-[CH2NMe2]TriAzDap-Leu-PyrS2-3Thi-BztA-Gln-NH2] — 1.9-fold higher, 849 nM
- CC(=O)N1CCC[C@]12CC=CCCCC1(CCCC=CCCCOC(=O)N3CC[C@@](C(=O)N[C@@H](Cc4ccsc4)C(=O)N[C@@H](Cc4csc5ccccc45)C(=O)N[C@@H](CCC(N)=O)C(N)=O)(C3)NC(=O)[C@H](CC(C)C)NC(=O)[C@H](Cn3cc(CN4CCNCC4)nn3)NC(=O)[C@H](C)NC(=O)[C@H](C)NC(=O)[C@H](CN(CC(=O)O)CC(F)(F)F)NC(=O)[C@H](CC(=O)O)NC1=O)NC(=O)[C@H](CC(C)(C)C)NC(=O)[C@H](CC(=O)O)NC2=O (stereo partly drawn) [I-1857, Ac-PL3-Asp-Npg-B5-Asp-TfeGA-Ala-Ala-[CH2Ppz]TriAzDap-Leu-PyrS2-3Thi-BztA-Gln-NH2] — 8.8-fold higher, 4030 nM
- CC(=O)N1CCC[C@]12CC=CCCCC1(CCCC=CCCCOC(=O)N3CC[C@@](C(=O)N[C@@H](Cc4ccsc4)C(=O)N[C@@H](Cc4csc5ccccc45)C(=O)N[C@@H](CCC(N)=O)C(N)=O)(C3)NC(=O)[C@H](CC(C)C)NC(=O)[C@H](Cn3cc(CN4CCOCC4)nn3)NC(=O)[C@H](C)NC(=O)[C@H](C)NC(=O)[C@H](CN(CC(=O)O)CC(F)(F)F)NC(=O)[C@H](CC(=O)O)NC1=O)NC(=O)[C@H](CC(C)(C)C)NC(=O)[C@H](CC(=O)O)NC2=O (stereo partly drawn) [I-1858, Ac-PL3-Asp-Npg-B5-Asp-TfeGA-Ala-Ala-[MorphCH2]TriAzDap-Leu-PyrS2-3Thi-BztA-Gln-NH2] — 2.4-fold higher, 1110 nM
- CC(=O)N1CCC[C@]12CC=CCCCC1(CCCC=CCCCOC(=O)N3CC[C@@](C(=O)N[C@@H](Cc4ccsc4)C(=O)N[C@@H](Cc4csc5ccccc45)C(=O)N[C@@H](CCC(N)=O)C(N)=O)(C3)NC(=O)[C@H](CC(C)C)NC(=O)[C@H](Cn3cc(CN4CCOCC4)nn3)NC(=O)[C@H](C)NC(=O)[C@H](C)NC(=O)[C@H](CN(CC(=O)O)CC(F)(F)F)NC(=O)[C@H](CC(=O)O)NC1=O)NC(=O)[C@H](CC(C)(C)C)NC(=O)[C@H](CC(=O)O)NC2=O (stereo partly drawn) [I-1859, Ac-PL3-Asp-Npg-B5-Asp-TfeGA-Ala-Ala-[MorphCH2]TriAzDap-Leu-PyrS2-3Thi-BztA-Gln-NH2] — 2.4-fold higher, 1110 nM
- CC(=O)N1CCC[C@]12CC=CCCCC1(CCCC=CCCCOC(=O)N3CC[C@@](C(=O)N[C@@H](Cc4ccsc4)C(=O)N[C@@H](Cc4csc5ccccc45)C(=O)N[C@@H](CCC(N)=O)C(N)=O)(C3)NC(=O)[C@H](CC(C)C)NC(=O)[C@H](Cn3cc(CN4CCS(=O)(=O)CC4)nn3)NC(=O)[C@H](C)NC(=O)[C@H](C)NC(=O)[C@H](CN(CC(=O)O)CC(F)(F)F)NC(=O)[C@H](CC(=O)O)NC1=O)NC(=O)[C@H](CC(C)(C)C)NC(=O)[C@H](CC(=O)O)NC2=O (stereo partly drawn) [I-1860, Ac-PL3-Asp-Npg-B5-Asp-TfeGA-Ala-Ala-[SO2MorphCH2]TriAzDap-Leu-PyrS2-3Thi-BztA-Gln-NH2] — within 1.5-fold, 512 nM
- CC(=O)N1CCC[C@]12CC=CCCCC1(CCCC=CCCCOC(=O)N3CC[C@@](C(=O)N[C@@H](Cc4ccsc4)C(=O)N[C@@H](Cc4csc5ccccc45)C(=O)N[C@@H](CCC(N)=O)C(N)=O)(C3)NC(=O)[C@H](Cn3cc(CN4CCNCC4)nn3)NC(=O)[C@H](Cc3ccccc3)NC(=O)[C@H](C)NC(=O)[C@H](C)NC(=O)[C@H](CN(CC(=O)O)CC(F)(F)F)NC(=O)[C@H](CC(=O)O)NC1=O)NC(=O)[C@H](CC(C)(C)C)NC(=O)[C@H](CC(=O)O)NC2=O (stereo partly drawn) [I-1863, Ac-PL3-Asp-Npg-B5-Asp-TfeGA-Ala-Ala-Phe-[CH2Ppz]TriAzDap-PyrS2-3Thi-BztA-Gln-NH2] — 46-fold lower, 10 nM
- CC(=O)N1CCC[C@]12CC=CCCCC1(CCCC=CCCCOC(=O)N3CC[C@@](C(=O)N[C@@H](Cc4ccsc4)C(=O)N[C@@H](Cc4csc5ccccc45)C(=O)N[C@@H](CCC(N)=O)C(N)=O)(C3)NC(=O)[C@H](Cn3cc(CN4CCS(=O)(=O)CC4)nn3)NC(=O)[C@H](Cc3ccccc3)NC(=O)[C@H](C)NC(=O)[C@H](C)NC(=O)[C@H](CN(CC(=O)O)CC(F)(F)F)NC(=O)[C@H](CC(=O)O)NC1=O)NC(=O)[C@H](CC(C)(C)C)NC(=O)[C@H](CC(=O)O)NC2=O (stereo partly drawn) [I-1868, Ac-PL3-Asp-Npg-B5-Asp-TfeGA-Ala-Ala-Phe-[SO2MorphCH2]TriAzDap-PyrS2-3Thi-BztA-Gln-NH2] — 38-fold lower, 12 nM
- CC(=O)N1CCC[C@]12CC=CCCCC1(CCCC=CCCCOC(=O)N3CC[C@@](C(=O)N[C@@H](Cc4ccsc4)C(=O)N[C@@H](Cc4csc5ccccc45)C(=O)N[C@@H](CCC(N)=O)C(N)=O)(C3)NC(=O)[C@H](Cn3cc(CN4CCS(=O)(=O)CC4)nn3)NC(=O)[C@H](Cc3ccccc3)NC(=O)[C@H](C)NC(=O)[C@H](C)NC(=O)[C@H](CN(CC(=O)O)CC(F)(F)F)NC(=O)[C@H](CC(=O)O)NC1=O)NC(=O)[C@H](CC(C)(C)C)NC(=O)[C@H](CC(=O)O)NC2=O (stereo partly drawn) [I-1869, Ac-PL3-Asp-Npg-B5-Asp-TfeGA-Ala-Ala-Phe-[SO2MorphCH2]TriAzDap-PyrS2-3Thi-BztA-Gln-NH2] — 38-fold lower, 12 nM
- CC(=O)N1CCC[C@]12CC=CCCCC1(CCCC=CCCCOC(=O)N3CC[C@@](C(=O)N[C@@H](Cc4ccsc4)C(=O)N[C@@H](Cc4cccc5ccccc45)C(=O)N[C@@H](CCC(N)=O)C(N)=O)(C3)NC(=O)[C@H](CC(N)=O)NC(=O)[C@H](Cc3ccccc3)NC(=O)[C@H](C)NC(=O)[C@H](C)NC(=O)[C@H]([C@@H](C)O)NC(=O)[C@H](CC(N)=O)NC1=O)NC(=O)[C@H](CC(C)(C)C)NC(=O)[C@H](CC(=O)O)NC2=O (stereo partly drawn) [I-1870, Ac-PL3-Asp-Npg-B5-Asn-Thr-Ala-Ala-Phe-Asn-PyrS2-3Thi-1NapA-Gln-NH2] — 3.3-fold higher, 1520 nM
- CC(=O)N1CCC[C@]12CC=CCCCC1(CCCC=CCCCOC(=O)N3CC[C@@](C(=O)N[C@@H](Cc4ccsc4)C(=O)N[C@@H](Cc4cccc5ccccc45)C(=O)N[C@@H](CCC(N)=O)C(N)=O)(C3)NC(=O)[C@H](CC(N)=O)NC(=O)[C@H](Cc3ccccc3)NC(=O)[C@H](C)NC(=O)[C@H](C)NC(=O)[C@H]([C@@H](C)O)NC(=O)[C@H](CC(N)=O)NC1=O)NC(=O)[C@H](CC(C)(C)C)NC(=O)[C@H](CC(=O)O)NC2=O (stereo partly drawn) [I-1871, Ac-PL3-Asp-Npg-B5-Asn-Thr-Ala-Ala-Phe-Asn-PyrS2-3Thi-1NapA-Gln-NH2] — 3.9-fold higher, 1770 nM
- CC(=O)N1CCC[C@]12CC=CCCCC1(CCCC=CCCCOC(=O)N3CC[C@@](C(=O)N[C@@H](Cc4ccsc4)C(=O)N[C@@H](Cc4ccc5ccccc5c4)C(=O)N[C@@H](CCC(N)=O)C(N)=O)(C3)NC(=O)[C@H](CC(N)=O)NC(=O)[C@H](Cc3ccccc3)NC(=O)[C@H](C)NC(=O)[C@H](C)NC(=O)[C@H]([C@@H](C)O)NC(=O)[C@H](CC(N)=O)NC1=O)NC(=O)[C@H](CC(C)(C)C)NC(=O)[C@H](CC(=O)O)NC2=O (stereo partly drawn) [I-1873, Ac-PL3-Asp-Npg-B5-Asn-Thr-Ala-Ala-Phe-Asn-PyrS2-3Thi-2NapA-Gln-NH2] — 3.2-fold higher, 1480 nM
- CC(=O)N1CCC[C@]12CC=CCCCC1(CCCC=CCCCOC(=O)N3CC[C@@](C(=O)N[C@@H](Cc4ccsc4)C(=O)N[C@@H](Cc4c[nH]c5ccccc45)C(=O)N[C@@H](CCC(N)=O)C(N)=O)(C3)NC(=O)[C@H](CC(N)=O)NC(=O)[C@H](Cc3ccccc3)NC(=O)[C@H](C)NC(=O)[C@H](C)NC(=O)[C@H]([C@@H](C)O)NC(=O)[C@H](CC(N)=O)NC1=O)NC(=O)[C@H](CC(C)(C)C)NC(=O)[C@H](CC(=O)O)NC2=O (stereo partly drawn) [I-1876, Ac-PL3-Asp-Npg-B5-Asn-Thr-Ala-Ala-Phe-Asn-PyrS2-3Thi-Trp-Gln-NH2] — 2.9-fold higher, 1340 nM
- CC(=O)N1CCC[C@]12CC=CCCCC1(CCCC=CCCCOC(=O)N3CC[C@@](C(=O)N[C@@H](Cc4ccsc4)C(=O)N[C@@H](Cc4c[nH]c5ccccc45)C(=O)N[C@@H](CCC(N)=O)C(N)=O)(C3)NC(=O)[C@H](CC(N)=O)NC(=O)[C@H](Cc3ccccc3)NC(=O)[C@H](C)NC(=O)[C@H](C)NC(=O)[C@H]([C@@H](C)O)NC(=O)[C@H](CC(N)=O)NC1=O)NC(=O)[C@H](CC(C)(C)C)NC(=O)[C@H](CC(=O)O)NC2=O (stereo partly drawn) [I-1877, Ac-PL3-Asp-Npg-B5-Asn-Thr-Ala-Ala-Phe-Asn-PyrS2-3Thi-Trp-Gln-NH2] — 3.3-fold higher, 1520 nM

Source: patent US20240116985A1, “STAPLED PEPTIDES AND METHODS THEREOF” (priority 2020, published 2024)
